In patent US20240002385A1, “PIPERIDINYL-METHYL-PURINE AMINE D-TARTARIC ACID SALTS, CRYSTALLINE FORMS, AND THEIR USE IN TREATING MEDICAL DISEASES AND CONDITIONS” (K36 Therapeutics, Inc., priority 2022, published 2024):
Converted amounts (≈) assume the structure as drawn.

Experiments:
Assay type in all cases: physicochemical
[1] = Hygroscopicity by dynamic vapor sorption; conditions: transitioned from 5% to 95% relative humidity
Procedure: The title compound was analyzed for hygroscopicity by dynamic vapor sorption. Dynamic vapor sorption was performed using a Q5000SA. The sample (5-15 mg) was loaded into a metallic quartz sample pan, suspended from a microbalance, and exposed to a humidified stream of nitrogen gas. Weight changes were relative to a matching empty reference pan opposite the sample, suspended from the microbalance. The sample was held for a minimum of 10 min at each humidity level and only progressed to the next humidity level if there was <0.002% change in weight between measurements (interval: 5 s) or 60 min had elapsed. The following program was used: • 1. Equilibration at 50% RH • 2. 50% to 5% (50%, 35%, 20%, and 5%) • 3. 5% to 95%(5%, 20%, 35%, 50%, 65%, 80%, and 95%) • 4. 95% to 5% (95%, 80%, 65%, 50%, 35%, 20%, and 5%) • 5. 5% to 50%(5%, 20%, 35%, and 50%).

[2] = Water content by Karl Fischer titration
Procedure: The title compound was analyzed for water content by Karl Fischer (KF) titration, and determined to have a water content of 1.22 wt %. Karl Fischer (KF) titration for water determination was performed using a Mettler Toledo C20S Coulometric KF Titrator equipped with a current generator cell with a diaphragm, and a double-platinum-pin electrode. The range of detection of the instrument is 1 ppm to 5% water. Aquastar™ CombiCoulomat fritless reagent was used in both the anode and cathode compartments. Samples of approximately 0.03-0.10 g were dissolved in the anode compartment and titrated until the solution potential dropped below 100 mV. Hydranal 1 wt % water standard was used for validation prior to sample analysis.

[3] = Water solubility of crystalline form at pH 6.8 and 37° C.; conditions: aqueous buffer, pH 6.8, 37° C.
[4] = Accelerated stability study (six days, 75% RH, 40° C.)
Procedure: An accelerated stability study was conducted on the crystalline form of (S)-1-((R)-3-amino-1-(4-((6-amino-9H-purin-9-yl)methyl)-6-(2,5-difluoro-4-methoxyphenyl) pyridin-3-yl)piperidin-3-yl)-2,2-difluoroethan-1-ol D-tartaric acid salt, prepared as described in Example 1. Approximately 12 mg of solid was placed into a 4-mL vial, and then the vial was covered with a Kimwipe. The vial was stored for six days inside a stability chamber producing a relative humidity of 75% at 40° C.

[5] = One year stability study (25° C.±2° C., 60%±5% RH); conditions: 25° C./60% RH
Procedure: A one-year stability study was conducted on the crystalline form of (S)-1-((R)-3-amino-1-(4-((6-amino-9H-purin-9-yl)methyl)-6-(2,5-difluoro-4-methoxyphenyl) pyridin-3-yl)piperidin-3-yl)-2,2-difluoroethan-1-ol D-tartaric acid salt having an XRDP pattern as set forth in Example 4. In particular, an aliquot of the crystalline (S)-1-((R)-3-amino-1-(4-((6-amino-9H-purin-9-yl)methyl)-6-(2,5-difluoro-4-methoxyphenyl) pyridin-3-yl)piperidin-3-yl)-2,2-difluoroethan-1-ol D-tartaric acid salt was stored for 1 year at a temperature of 25° C.±2° C. where the relative humidity was 60%±5%. A sample of the crystalline (S)-1-((R)-3-amino-1-(4-((6-amino-9H-purin-9-yl)methyl)-6-(2,5-difluoro-4-methoxyphenyl) pyridin-3-yl)piperidin-3-yl)-2,2-difluoroethan-1-ol D-tartaric acid salt was analyzed at the following time points in the experiment: 0 days (i.e., at the start of the experiment), 1 month, 3 months, 6 months, 9 months, and 12 months. The following parameters were evaluated at each time point: physical appearance, water content by coulometric Karl Fischer (CKF) determination, purity by ultra-performance liquid chromatography (UPLC), and total amount of related substances. XRPD analysis was performed on a compound sample at time points 0 days and at 12 months.

[6] = Six-month stability study at elevated temperature and relative humidity (40° C.±2° C., 75%±5% RH); conditions: 40° C./75% RH
Procedure: A six-month stability study was conducted on the crystalline form of (S)-1-((R)-3-amino-1-(4-((6-amino-9H-purin-9-yl)methyl)-6-(2,5-difluoro-4-methoxyphenyl) pyridin-3-yl)piperidin-3-yl)-2,2-difluoroethan-1-ol D-tartaric acid salt having an XRDP pattern as set forth in Example 4. In particular, an aliquot of the crystalline (S)-1-((R)-3-amino-1-(4-((6-amino-9H-purin-9-yl)methyl)-6-(2,5-difluoro-4-methoxyphenyl) pyridin-3-yl)piperidin-3-yl)-2,2-difluoroethan-1-ol D-tartaric acid salt was stored for six months at a temperature of 40° C.±2° C. where the relative humidity was 75%±5%. A sample of the crystalline (S)-1-((R)-3-amino-1-(4-((6-amino-9H-purin-9-yl)methyl)-6-(2,5-difluoro-4-methoxyphenyl) pyridin-3-yl)piperidin-3-yl)-2,2-difluoroethan-1-ol D-tartaric acid salt was analyzed at the following time points in the experiment: 0 days (i.e., at the start of the experiment), 1 month, 3 months, and 6 months. The following parameters were evaluated at each time point: physical appearance, water content by coulometric Karl Fischer (CKF) determination, purity by ultra-performance liquid chromatography (UPLC), and total amount of related substances. XRPD analysis was performed on a compound sample at time points 0 days and at 6 months.

[7] = Analysis of aqueous solubility (water and fasted state simulated intestinal fluid); conditions: 37° C.; for solubility at 24 h: thermodynamic from solid, read-out: Test Compound Solubility
Procedure: Solubility of test compounds in two different liquids was evaluated: (a) water and (b) fasted state simulated intestinal fluid. Test compounds analyzed were: • crystalline (S)-1-((R)-3-amino-1-(4-((6-amino-9H-purin-9-yl)methyl)-6-(2,5-difluoro-4-methoxyphenyl) pyridin-3-yl)piperidin-3-yl)-2,2-difluoroethan-1-ol D-tartaric acid salt, as set forth in Example 4 (hereinafter “Compound A”); • (S)-1-((R)-3-amino-1-(4-((6-amino-9H-purin-9-yl)methyl)-6-(2,5-difluoro-4-methoxyphenyl) pyridin-3-yl)piperidin-3-yl)-2,2-difluoroethan-1-ol fumaric acid salt (hereinafter “Compound B”); • (S)-1-((R)-3-amino-1-(4-((6-amino-9H-purin-9-yl)methyl)-6-(2,5-difluoro-4-methoxyphenyl) pyridin-3-yl)piperidin-3-yl)-2,2-difluoroethan-1-ol free base (hereinafter “Compound C”).
An aliquot of test compound was placed in the liquid at a temperature of 37° C., and then after 24 hours the concentration of dissolved test compound was determined. pH of the solution at 24 hours was also measured.

[8] = Salt form observations: hydrate formation and hygroscopicity
[9] = fassif, fasted state simulated intestinal fluid
[10] = fasted state simulated intestinal fluid

SMILES: COc1cc(F)c(-c2cc(Cn3cnc4c(N)ncnc43)c(N3CCC[C@](N)([C@H](O)C(F)F)C3)cn2)cc1F.O=C(O)C(O)C(O)C(=O)O [Compound A, (S)-1-((R)-3-amino-1-(4-((6-amino-9H-purin-9-yl)methyl)-6-(2,5-difluoro-4-methoxyphenyl)pyridin-3-yl)piperidin-3-yl)-2,2-difluoroethan-1-ol D-tartaric acid salt]
- increase in weight in dynamic vapor sorption [1]: 4.858%
- water content by Karl Fischer (KF) titration [2]: 1.22 wt %
- solubility at 30 min ([3]; after 30 minutes): > 2000 µg/mL
- solubility at 24 h ([3]; after 24 hours): > 2000 µg/mL
- XRPD of recovered salt ([4]; after six days, 75% relative humidity, 40° C.): no change of the crystalline form
- purity by HPLC ([4]; after the study: six days, 75% relative humidity, 40° C.): 99.45 area percent
- purity by HPLC ([4]; before the study): 99.53 area percent
- API Purity by UPLC ([5]; 1 month): 99.9 % area in LC trace
- Physical Appearance ([5]; 1 month): white
- Total Amount of Related Substances by UPLC ([5]; 1 month): 0.05 % w/w
- Water Content by CKF ([5]; 1 month): 0.3 % w/w
- API Purity by UPLC ([5]; 3 months): 100.0 % area in LC trace
- Physical Appearance ([5]; 3 months): white
- Total Amount of Related Substances by UPLC ([5]; 3 months): 0.05 % w/w
- Water Content by CKF ([5]; 3 months): 0.4 % w/w
- API Purity by UPLC ([5]; 6 months): 100.0 % area in LC trace
- Physical Appearance ([5]; 6 months): white
- Total Amount of Related Substances by UPLC ([5]; 6 months): <0.05 % w/w
- Water Content by CKF ([5]; 6 months): 0.3 % w/w
- API Purity by UPLC ([5]; 9 months): 100.0 % area in LC trace
- Physical Appearance ([5]; 9 months): white
- Total Amount of Related Substances by UPLC ([5]; 9 months): <0.05 % w/w
- Water Content by CKF ([5]; 9 months): 0.2 % w/w
- API Purity by UPLC ([5]; 12 months): 100.0 % area in LC trace
- Physical Appearance ([5]; 12 months): white
- Total Amount of Related Substances by UPLC ([5]; 12 months): 0.05 % w/w
- Water Content by CKF ([5]; 12 months): 0.3 % w/w
- API Purity by UPLC ([5]; day 0): 100.0 % area in LC trace
- Physical Appearance ([5]; day 0): white wolid
- Total Amount of Related Substances by UPLC ([5]; day 0): <0.05 % w/w
- Water Content by CKF ([5]; day 0): 0.2 % w/w
- XRPD spectrum after storage versus day 0 ([5]; stored for 12 months): matched the XRPD spectrum obtained on said compound at the beginning of the stability study
- API Purity by UPLC ([6]; 1 month): 100.0 % area in LC trace
- Physical Appearance ([6]; 1 month): white wolid
- Total Amount of Related Substances by UPLC ([6]; 1 month): 0.05 % w/w
- Water Content by CKF ([6]; 1 month): 0.4 % w/w
- API Purity by UPLC ([6]; 3 months): 100.0 % area in LC trace
- Physical Appearance ([6]; 3 months): white wolid
- Total Amount of Related Substances by UPLC ([6]; 3 months): 0.05 % w/w
- Water Content by CKF ([6]; 3 months): 0.4 % w/w
- API Purity by UPLC ([6]; 6 months): 100.0 % area in LC trace
- Physical Appearance ([6]; 6 months): white wolid
- Total Amount of Related Substances by UPLC ([6]; 6 months): <0.05 % w/w
- Water Content by CKF ([6]; 6 months): 0.4 % w/w
- API Purity by UPLC ([6]; day 0): 100.0 % area in LC trace
- Physical Appearance ([6]; day 0): white wolid
- Total Amount of Related Substances by UPLC ([6]; day 0): <0.05 % w/w
- Water Content by CKF ([6]; day 0): 0.2 % w/w
- XRPD spectrum after storage versus day 0 ([6]; stored for 6 months): matched the XRPD spectrum obtained on said compound at the beginning of the stability study
- solubility at 24 h [7, 9]: 1600 µg/mL
- pH of Liquid Medium at 24 Hours [7, 10]: 5.71
- solubility at 24 h ([7]; water): 2400 µg/mL
- pH of Liquid Medium at 24 Hours ([7]; water): 3.59
- hydrate formation / anhydrous form [8]: could be obtained in anhydrous form
- hygroscopicity ([8]; long-duration stability studies): low hygroscopicity

SMILES: COc1cc(F)c(-c2cc(Cn3cnc4c(N)ncnc43)c(N3CCC[C@](N)([C@H](O)C(F)F)C3)cn2)cc1F.O=C(O)/C=C/C(=O)O [Compound B, (S)-1-((R)-3-amino-1-(4-((6-amino-9H-purin-9-yl)methyl)-6-(2,5-difluoro-4-methoxyphenyl)pyridin-3-yl)piperidin-3-yl)-2,2-difluoroethan-1-ol fumaric acid salt]
- solubility at 24 h [7, 9]: 506 µg/mL
- pH of Liquid Medium at 24 Hours [7, 10]: 6.06
- solubility at 24 h ([7]; water): 488 µg/mL
- pH of Liquid Medium at 24 Hours ([7]; water): 4.03
- hydrate formation / anhydrous form [8]: observed to form hydrates

SMILES: COc1cc(F)c(-c2cc(Cn3cnc4c(N)ncnc43)c(N3CCC[C@](N)([C@H](O)C(F)F)C3)cn2)cc1F [Compound C, (S)-1-((R)-3-amino-1-(4-((6-amino-9H-purin-9-yl)methyl)-6-(2,5-difluoro-4-methoxyphenyl)pyridin-3-yl)piperidin-3-yl)-2,2-difluoroethan-1-ol free base]
- solubility at 24 h [7, 9]: 298 µg/mL (≈ 545 µM)
- pH of Liquid Medium at 24 Hours [7, 10]: 6.61
- solubility at 24 h ([7]; water): 0.2 µg/mL (≈ 0.366 µM)
- pH of Liquid Medium at 24 Hours ([7]; water): 6.92

SMILES: COc1cc(F)c(-c2cc(Cn3cnc4c(N)ncnc43)c(N3CCC[C@](N)([C@H](O)C(F)F)C3)cn2)cc1F.Cl [hydrochloric acid salt]
- hydrate formation / anhydrous form [8]: observed to form hydrates
